Experimental data as given in patent US11034718B2, “C-3 novel triterpenone with C-17 reverse amide derivatives as HIV inhibitors” (HETERO LABS LIMITED, priority 2015, dated 2021).
Structures can show the parent of a compound that is named as a salt. Where two headings read alike, the source gives them in different places.

Test system: HIV-1 strain 92HT599
Assay: Antiviral activity against HIV-1 strain 92HT599 in MT2 cells (p24 estimation)
Format: cell-based
Conditions: HIV-1 92HT599, ~96 hours
Protocol: Example 77: Evaluation of Compounds Antiviral Activity Against HIV-1 Strain 92HT599 in MT2 Cells
MT2 cells were infected with HIV-1 strain 92HT599 (10 TCID 50/30000 cells). The infected cells were plated at the concentration of 30,000 cells per well in 96 well plate. Test compound was added to the micro plate in defined format with the final concentration of DMSO (vehicle) is not more than 1%. Incubation was carried out in CO2 incubator for ˜96 hours for viral infection. At the end of incubation period an aliquot from each well was taken for p24 estimation. The quantitation of p24 is an index for antiviral activity of the compound. Percent inhibition was calculated with reference to control values (vehicle controls). p24 estimation was carried out using Advance biosciences kit as per the procedure detailed by supplier.

[1] = Human immunodeficiency virus 1, 0% serum binding assay, read-out: IC50 0% serum
[2] = Human immunodeficiency virus 1, 40% serum binding assay, read-out: IC50 40% serum

SMILES	IC50 [1]	IC50 [2]
CC(C)C1=C2[C@H]3CC[C@@H]4[C@@]5(C)CC[C@H](OC(=O)[C@@H]6C[C@H](C(=O)O)C6(C)C)C(C)(C)[C@@H]5CC[C@@]4(C)[C@]3(C)CC[C@@]2(NC(=O)C(C)(C)NC(=O)c2ccc(Cl)cc2)CC1=O [Example 21, (1S,3R)-3-((((3aR,5aR,5bR,7aR,9S,11aR,11bR,13aS)-3a-(2-(4-chlorobenzamido)-2-methylpropanamido)-1-isopropyl-5a,5b,8,8,11a-pentamethyl-2-oxo-3,3a,4,5,5a,5b,6,7,7a,8,9,10,11,11a,11b,12,13,13a-octadecahydro-2H-cyclopenta[a]chrysen-9-yl)oxy)carbonyl)-2,2-dimethylcyclobutane-1-carboxylic acid]	3.01 to 10 nM	< 50 nM
CC(C)C1=C2[C@H]3CC[C@@H]4[C@@]5(C)CC[C@H](OC(=O)[C@H]6C[C@@H](C(=O)O)C6(C)C)C(C)(C)[C@@H]5CC[C@@]4(C)[C@]3(C)CC[C@@]2(NC(=O)C(C)(C)NC(=O)c2ccc(F)cc2)CC1=O [Example 22, (1R,3S)-3-((((3aR,5aR,5bR,7aR,9S,11aR,11bR,13aS)-3a-(2-(4-fluorobenzamido)-2-methylpropanamido)-1-isopropyl-5a,5b,8,8,11a-pentamethyl-2-oxo-3,3a, 4,5,5a,5b,6,7,7a,8,9,10,11,11a,11b,12,13,13a-octadecahydro-2H-cyclopenta[a]chrysen-9-yl)oxy)carbonyl)-2,2-dimethylcyclobutane-1-carboxylic acid]	< 3 nM	< 50 nM
Cc1ccc(C(=O)NC(C)(C)C(=O)N[C@@]23CC[C@]4(C)[C@H](CC[C@@H]5[C@@]6(C)CC[C@H](OC(=O)[C@H]7C[C@@H](C(=O)O)C7(C)C)C(C)(C)[C@@H]6CC[C@]54C)C2=C(C(C)C)C(=O)C3)cc1 [Example 23, (1R,3S)-3-((((3aR,5aR,5bR,7aR,9S,11aR,11bR,13aS)-1-isopropyl-5a,5b,8,8,11a-pentamethyl-3a-(2-methyl-2-(4-methylbenzamido)propanamido)-2-oxo-3,3a,4,5,5a,5b,6,7,7a,8,9,10,11,11a,11b,12,13,13a-octadecahydro-2H-cyclopenta[a]chrysen-9-yl)oxy)carbonyl)-2,2-dimethylcyclobutane-1-carboxylic acid]	< 3 nM	< 50 nM
CC(C)C1=C2[C@H]3CC[C@@H]4[C@@]5(C)CC[C@H](OC(=O)[C@H]6C[C@@H](C(=O)O)C6(C)C)C(C)(C)[C@@H]5CC[C@@]4(C)[C@]3(C)CC[C@@]2(NC(=O)C(C)(C)NC(=O)c2ccoc2)CC1=O [Example 24, (1R,3S)-3-((((3aR,5aR,5bR,7aR,9S,11aR,11bR,13aS)-3a-(2-(furan-3-carboxamido)-2-methylpropanamido)-1-isopropyl-5a,5b, 8,8,11a-pentamethyl-2-oxo-3,3a,4,5,5a,5b,6,7,7a,8,9,10,11,11a,11b,12,13,13a-octadecahydro-2H-cyclopenta[a]chrysen-9-yl)oxy)carbonyl)-2,2-dimethylcyclobutane-1-carboxylic acid]	< 3 nM	50 to 200 nM
CC(C)C1=C2[C@H]3CC[C@@H]4[C@@]5(C)CC[C@H](OC(=O)[C@H]6C[C@@H](C(=O)O)C6(C)C)C(C)(C)[C@@H]5CC[C@@]4(C)[C@]3(C)CC[C@@]2(NC(=O)C(C)(C)NC(=O)c2ccco2)CC1=O [Example 26, (1R,3S)-3-((((3aR,5aR,5bR,7aR,9S,11aR,11bR,13aS)-3a-(2-(furan-2-carboxamido)-2-methylpropanamido)-1-isopropyl-5a,5b,8,8,11a-pentamethyl-2-oxo-3,3a,4,5,5a,5b,6,7,7a,8,9,10,11,11a,11b,12,13,13a-octadecahydro-2H-cyclopenta[a]chrysen-9-yl)oxy)carbonyl)-2,2-dimethylcyclobutane-1-carboxylic acid]	< 3 nM	50 to 200 nM
CC(C)C1=C2[C@H]3CC[C@@H]4[C@@]5(C)CC[C@H](OC(=O)[C@H]6C[C@@H](C(=O)O)C6(C)C)C(C)(C)[C@@H]5CC[C@@]4(C)[C@]3(C)CC[C@@]2(NC(=O)C(C)(C)NC(=O)C2(c3ccccc3)CCCC2)CC1=O [Example 27, (1R,3S)-3-((((3aR,5aR,5bR,7aR,9S,11aR,11bR,13aS)-1-isopropyl-5a,5b,8,8,11a-pentamethyl-3a-(2-methyl-2-(1-phenylcyclopentane-1-carboxamido)propanamido)-2-oxo-3,3a,4,5,5a,5b,6,7,7a,8,9,10,11,11a,11b,12,13,13a-octadecahydro-2H-cyclopenta[a]chrysen-9-yl)oxy)carbonyl)-2,2-dimethylcyclobutane-1-carboxylic acid]	3.01 to 10 nM	50 to 200 nM
CC(C)C1=C2[C@H]3CC[C@@H]4[C@@]5(C)CC[C@H](OC(=O)[C@H]6C[C@@H](C(=O)O)C6(C)C)C(C)(C)[C@@H]5CC[C@@]4(C)[C@]3(C)CC[C@@]2(NC(=O)C(C)(C)NC(=O)C2CCNCC2)CC1=O [Example 35, (1R,3S)-3-((((3aR,5aR,5bR,7aR,9S,11aR,11bR,13aS)-1-isopropyl-5a,5b,8,8,11a-pentamethyl-3a-(2-methyl-2-(piperidine-4-carboxamido)propanamido)-2-oxo-3,3a,4,5,5a,5b,6,7,7a,8,9,10,11,11a,11b,12,13,13a-octadecahydro-2H-cyclopenta[a]chrysen-9-yl)oxy)carbonyl)-2,2-dimethylcyclobutane-1-carboxylic acid hydrochloride]	> 10 nM	> 200 nM
CC(C)C1=C2[C@H]3CC[C@@H]4[C@@]5(C)CC[C@H](OC(=O)[C@H]6C[C@@H](C(=O)O)C6(C)C)C(C)(C)[C@@H]5CC[C@@]4(C)[C@]3(C)CC[C@@]2(NC(=O)C(C)(C)NC(=O)[C@@H](N)C(C)C)CC1=O [Example 36, (1R,3S)-3-((((3aR,5aR,5bR,7aR,9S,11aR,11bR,13aS)-3a-(2-((S)-2-amino-3-methylbutanamido)-2-methylpropanamido)-1-isopropyl-5a,5b,8,8,11a-pentamethyl-2-oxo-3,3a,4,5,5a,5b,6,7,7a,8,9,10,11,11a,11b,12,13,13a-octadecahydro-2H-cyclopenta[a]chrysen-9-yl)oxy)carbonyl)-2,2-dimethylcyclobutane-1-carboxylic acid hydrochloride]	< 3 nM	50 to 200 nM
Cc1ccc(C(=O)NC2(C(=O)N[C@@]34CC[C@]5(C)[C@H](CC[C@@H]6[C@@]7(C)CC[C@H](OC(=O)[C@H]8C[C@@H](C(=O)O)C8(C)C)C(C)(C)[C@@H]7CC[C@]65C)C3=C(C(C)C)C(=O)C4)CCC2)cn1 [Example 43, (1R,3S)-3-((((3aR,5aR,5bR,7aR,9S,11aR,11bR,13aS)-1-isopropyl-5a,5b,8,8,11a-pentamethyl-3a-(1-(6-methylnicotinamido)cyclobutane-1-carboxamido)-2-oxo-3,3a,4,5,5a,5b,6,7,7a,8,9,10,11,11a,11b,12,13,13a-octadecahydro-2H-cyclopenta[a]chrysen-9-yl)oxy)carbonyl)-2,2-dimethylcyclobutane-1-carboxylic acid]	< 3 nM	< 50 nM
